The target in experiment [1] is T1, ribonucleotide reductase (Mus musculus, UniProt P07742+P11157).
T1 construct: endogenous in cells; host or cells: Ehrlich ascites tumor cells
T1 sequence (P07742 1-792): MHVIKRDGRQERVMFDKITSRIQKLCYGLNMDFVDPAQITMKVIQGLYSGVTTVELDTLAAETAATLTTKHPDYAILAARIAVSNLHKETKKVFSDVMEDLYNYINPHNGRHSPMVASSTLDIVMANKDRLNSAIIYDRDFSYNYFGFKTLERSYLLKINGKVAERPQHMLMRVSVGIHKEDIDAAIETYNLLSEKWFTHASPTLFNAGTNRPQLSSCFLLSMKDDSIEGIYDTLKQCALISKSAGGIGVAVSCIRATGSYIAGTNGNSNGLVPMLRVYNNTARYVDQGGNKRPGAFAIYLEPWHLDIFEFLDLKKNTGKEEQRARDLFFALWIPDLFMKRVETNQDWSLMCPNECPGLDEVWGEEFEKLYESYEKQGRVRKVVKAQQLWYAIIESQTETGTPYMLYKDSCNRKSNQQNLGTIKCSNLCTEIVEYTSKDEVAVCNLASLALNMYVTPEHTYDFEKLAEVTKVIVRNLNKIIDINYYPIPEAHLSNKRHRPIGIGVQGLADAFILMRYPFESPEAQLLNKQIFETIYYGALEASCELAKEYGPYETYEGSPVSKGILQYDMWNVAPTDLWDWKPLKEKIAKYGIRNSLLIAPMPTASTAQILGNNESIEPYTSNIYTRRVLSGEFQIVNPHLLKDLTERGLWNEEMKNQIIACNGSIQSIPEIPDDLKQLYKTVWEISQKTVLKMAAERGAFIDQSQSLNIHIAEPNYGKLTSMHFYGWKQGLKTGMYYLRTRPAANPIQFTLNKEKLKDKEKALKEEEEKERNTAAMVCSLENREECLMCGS
T1 sequence (P11157 1-390): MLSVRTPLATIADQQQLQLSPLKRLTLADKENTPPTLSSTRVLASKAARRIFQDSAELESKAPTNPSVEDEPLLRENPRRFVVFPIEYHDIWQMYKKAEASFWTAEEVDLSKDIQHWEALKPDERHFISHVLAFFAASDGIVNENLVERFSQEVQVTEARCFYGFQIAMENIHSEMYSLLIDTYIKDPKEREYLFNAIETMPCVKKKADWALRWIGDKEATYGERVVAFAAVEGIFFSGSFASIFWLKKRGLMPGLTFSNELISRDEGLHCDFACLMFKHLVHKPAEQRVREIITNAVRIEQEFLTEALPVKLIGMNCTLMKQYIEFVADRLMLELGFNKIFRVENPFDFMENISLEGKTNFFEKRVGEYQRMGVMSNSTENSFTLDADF
Kind of experiment: In vivo ribonucleotide reductase activity. The method, then:
CF1 male mice (~30 g) were implanted with 2×10^6 Ehrlich ascites tumor cells, intraperitoneally on Day 0. Compound I was suspended by homogenation in 0.05% polysorbate.80-water and administered intraperitoneally at 10 and 20 mg/kg for 9 days to determine its effectiveness for inhibition of tumor growth. Mice were sacrificed on Day 10, and the ascites fluid was collected from the peritoneal cavity. The volume and ascrit (packed cell volume) were determined for each animal and the percent inhibition of tumor growth was calculated. For the metabolic studies, mice were treated on Days 8 and 9 with 10 mg/kg of Compound I, intraperitoneally. […]
Carbamyl phosphate synthetase activity was determined using the reaction medium of Kalman et al [Am. […] Citrulline formed from ornithine was measured at 490 nm by the method of Archibald [J. Biol. Chem., 156, 121 (1944)]. […] The ^14 CO2 generated in 15 min was trapped in 1M KOH and counted. Thymidylate synthetase activity was determined using a post-mitochondrial supernatant (9000 g×10 min) and 5 μCi of 5-^3 H-deoxyuridine monophosphate (14 Ci/mmol) according to the method of Kampf et al [ J. Med. Chem., 19, 903 (1976)]. ^14 C-Formate incorporation into purines was determined by the method of Spassova et al [Biochem. Pharmacol., 25, 923 (1976)] using 0.5 μCi of ^14 C-formic acid (52.0 mCi/mmol). […] The Rf value for xanthine monophosphate was scraped and counted. […]

For experiment [2], the system named is deoxyribonuclease. Kind of experiment: In vitro deoxyribonuclease activity. The class given is biochemical, mouse. To be noted: read-out: ID50, Deoxyribonuclease activity. The method, then: CF1 male mice (~30 g) were implanted with 2×10^6 Ehrlich ascites tumor cells, intraperitoneally on Day 0. Compound I was suspended by homogenation in 0.05% polysorbate.80-water and administered intraperitoneally at 10 and 20 mg/kg for 9 days to determine its effectiveness for inhibition of tumor growth. Mice were sacrificed on Day 10, and the ascites fluid was collected from the peritoneal cavity. The volume and ascrit (packed cell volume) were determined for each animal and the percent inhibition of tumor growth was calculated. For the metabolic studies, mice were treated on Days 8 and 9 with 10 mg/kg of Compound I, intraperitoneally. The animal was sacrificed on Day 10 and the ascites fluid harvested. The in vitro metabolic studies were performed at […] final concentration of Compound I.

For “{Cu[(CH3)3 N.BH2 CO2 ]2.(CH3)3 N.BH2 COOH} [Compound I]”, the Ribonucleotide reductase activity result in experiment [1] is listed as “unaffected”. For the same substance, the Riboncleotide reductase activity in experiment [1] (10 mg/kg/day I.P. on Days 8 and 9) worked out at 101 ± 8 % Control. Further, the IC50 in experiment [2] is 682 µM.
